Blank lines part the entries; values can stand above or below the molecule they belong to.
How the values were obtained:
[1] = Plasma drug exposure at steady state in SLE-cGVHD mice; format: in vivo, mouse; conditions: day 26, 10 and 20 mg/kg BID oral
Method: Plasma was collected by centrifugation at 5, 600 rpm for 7 minutes. Bioanalysis was conducted at 3D BioOptima Co., Ltd. (Suzhou, China).

[2] = Plasma drug exposure at steady state in MRL/lpr mice; format: in vivo, mouse; conditions: 1.5-50 mg/kg BID oral
Method: Plasma was collected by centrifugation at 5, 600 rpm for 7 minutes and was kept frozen at −80° C. until analysis. Bioanalysis was conducted at 3D BioOptima Co., Ltd. (Suzhou, China).

[3] = tested on: NZBWF1/J lupus mouse model; experiment: Efficacy in NZBWF1/J lupus model; format: in vivo; conditions: for Blood urea nitrogen (BUN) level: day 96, serum
Method: […] NZBWF1 female mice at 26 weeks of age were randomized into 7 groups with 10 mice per group, based on proteinuria level, anti-dsDNA IgG level and body weight. […] Treatments were administered by oral gavage (p.o.) in a volume of 10 ml/kg body weight.
Mice were also being monitored daily for clinical signs of toxicity for the duration of the study. Body weight for each animal was recorded twice per week and proteinuria was measured weekly. Proteinuria was assessed using URIT 1 vp strips, and was scored on a 0-4 scale with scored as follows: 0=trace, 1≥30 mg/dL, 2≥100 mg/dL, 3≥300 mg/dL, and 4≥500 mg/dL.
On the day 96th of treatment, blood was collected quickly by the heart punctures under carbon dioxide euthanasia. The 300-500 μL blood was transferred to the coagulation tube, and the upper serum samples were separated by centrifuge at 2,000 g for 10 minutes, and then stored in the refrigerator at −80° C. for later use. 110 μL serum was used for the detection of blood urea nitrogen level, and 25 μL serum was used for measurement of TNFα and IL-10 levels by Luminex.
The kidney was removed and fixed with 10% neutral buffer formalin solution. The tissue was taken from the modified block, dehydrated with alcohol step by step, embedded in paraffin, sectioned by slide slicer (about 3 μm thick), stained with hematoxylin-cosin (HE), and examined by light microscopy for pathological changes of the kidney tissue. Sections were blindly scored as the sum of three systems, including inflammation (0-4), glomerular damage (0-4), and sclerosis (0-4).

[4] = tested on: SLE-cGVHD mouse model; experiment: Efficacy in systemic lupus erythematosus like chronic graft-versus-host-disease (SLE-cGVHD) model; format: in vivo
Method: Splenocytes from DBA/2 mice were transplanted into 54 B6D2F1 mice intravenously at day −7 and day 0. 48 animals were randomly divided into 4 groups of 12 animals each group according to the inoculation order. Treatment was initiated the next day after randomization until the end of the 26th day. […] Treatments were administered by oral gavage (p.o.) in a volume of 10 ml/kg body weight.
Mice were monitored daily for clinical signs of toxicity for the duration of the study. Body weight for each animal was recorded twice per week. On day 15th of treatment, blood was collected from the orbital venous sinus under isoflurane/oxygen anesthesia and the serum samples were prepared. An anti-ds DNA IgG ELISA kit (Chondrex, Inc., Cat. 3031) was used to quantitate anti-ds DNA IgG levels in sera from individual mice.
On day 8th, b 15th and 22th of treatment, proteinuria was assessed by determination of urine albumin using URIT 1 vp strips (URIT, China), and was scored on a 0-4 scale with scored as follows: 0=trace, 1≥30 mg/dL, 2≥100 mg/dL, 3≥300 mg/dL, and 4≥500 mg/dL.
The difference between the mean values of proteinuria level, spleen-index and anti-ds DNA IgG level in treatment and vehicle group was analyzed for significance using One-way ANOVA (followed by Dunnett's test). P<0.05 was considered statistically significant.

[5] = tested on: MRL/MpJ-Fas^lpr/J (MRL/lpr) mouse model; experiment: Efficacy in MRL/MpJ-Fas^lpr/J (MRL/lpr) lupus model; format: in vivo
Method: MRL/MpJ-Fas^lpr/J (MRL/lpr) mice purchased from Jackson laboratories were randomized into 6 groups with 11 mice per group, based on proteinuria level, anti-dsDNA IgG and body weight. […] Treatments were administered by oral gavage (p.o.) in a volume of 10 ml/kg body weight.
During the experimental period, the condition and mortality of the mice were recorded every day. Body weight for each animal was recorded twice per week.
Proteinuria was measured by determination of urine albumin weekly using URIT 1 vp strips (URIT, China), and was scored on a 0-4 scale with scored as follows: 0=trace, 1≥30 mg/dLl, 2≥100 mg/dL, 3≥300 mg/dLl, and 4≥500 mg/dL.
At the end of the study, blood was collected from the orbital venous sinus under isoflurane/oxygen anesthesia. The serum samples were prepared and analyzed for BUN level in serum. An anti-dsDNA IgG ELISA kit (Chondrex, Inc., Cat. 3031) was used to quantitate IgG level to anti-dsDNA IgG in sera from individual mice.
Mice were euthanized using carbon dioxide, spleen and body weight were measured at the end of the study. Spleen index (ratio of spleen weight to body weight) was calculated.
The kidneys were collected and preserved in 10% NBF, the tissues were trimmed, dehydrated, embedded in paraffin, sectioned (˜3 μm) and stained with HE. The histopathology exam was performed.
The difference between the mean values of proteinuria level, spleen-index, BUN level, kidney histopathology score and anti-dsDNA IgG level in treatment and vehicle group was analyzed for significance using One-way ANOVA (followed by Dunnett's test). P<0.05 was considered statistically significant.

[6] = Compound 1 10 mg/kg BID p.o., day 96
[7] = Compound 1 3 and 10 mg/kg BID p.o.
[8] = 1.5, 5, 15 and 50 mg/kg BID oral, end of study
[9] = MMF 100 mg/kg QD p.o., compared with the control group

Drug exposure AUC0-8h [1]: increased dose dependently
Drug exposure Cmax [1]: increased dose dependently
Drug exposure AUC0-8h [2]: increased dose independently
Drug exposure Cmax [2]: increased dose independently
SMILES: C=CC(=O)N1CCC([C@@H]2CCNc3c(C(N)=O)c(-c4ccc(Oc5ccccc5)cc4)nn32)CC1 [Compound 1, (S)-7-(1-acryloylpiperidin-4-yl)-2-(4-phenoxyphenyl)-4,5,6,7-tetra-hydropyrazolo[1,5-a]pyrimidine-3-carboxamide]
Secretion of IL-10 (serum level) [3, 6]: dramatically inhibited
Secretion of TNFα (serum level) [3, 6]: dramatically inhibited
Renal histopathology score ([3]; Compound 1 0.1-10 mg/kg BID p.o.): inhibited renal histopathology score in a dose-dependent manner
Proteinuria ([3]; Compound 1 0.1-10 mg/kg BID p.o., vs. vehicle): dose-dependently suppressed
Proteinuria ([3]; Compound 1 0.1 and 0.3 mg/kg BID p.o., compared with MMF 100 mg/kg QD): less effective than MMF
Proteinuria ([3]; Compound 1 1, 3 and 10 mg/kg BID p.o., compared with MMF 100 mg/kg QD): no significant difference when compared with MMF
Spleen weight [3, 7]: dramatically inhibited
Blood urea nitrogen (BUN) level [3, 7]: remarkably inhibited
Anti-lupus effect compared with MMF ([3]; Compound 1 orally 3 and 10 mg/kg BID): stronger anti-lupus effect
Anti-lupus effect (overall) ([3]; NZBWF1/J lupus mouse model, all results): strong anti-lupus effect
Level of anti-dsDNA IgG in serum ([4]; 10 and 20 mg/kg BID oral, day 15 of treatment, ELISA): inhibited
Proteinuria level ([4]; 10 and 20 mg/kg BID oral, day 22 of treatment): significantly reduced
Disease (overall) ([4]; SLE-cGvHD mouse model, all results): ameliorated disease
Efficacy (dose dependence) ([5]; 1.5 mg/kg to 50 mg/kg twice a day): dose-dependent efficacy
Protection from lupus nephritis ([5]; 1.5, 5, 15 and 50 mg/kg BID oral, 17 weeks): significantly protected
Proteinuria ([5]; 1.5, 5, 15 and 50 mg/kg BID oral, day 118): significantly decreased
Kidney histopathological score [5, 8]: reduced
Serum blood urea nitrogen (BUN) level [5, 8]: significantly decreased
Anti-dsDNA IgG level in serum ([5]; 1.5, 5, 15 and 50 mg/kg BID oral, end of study, compared with vehicle): inhibited
Anti-lupus effect (overall) ([5]; MRL/lpr mouse model, all results): strong anti-lupus effect

SMILES: COc1c(C)c2c(c(O)c1C/C=C(\C)CCC(=O)OCCN1CCOCC1)C(=O)OC2 [MMF, mycophenolate mofetil, reference compound]
Renal histopathology score ([3]; MMF 100 mg/kg QD p.o.): not able to significantly inhibit
Spleen mass ([3]; MMF 100 mg/kg QD p.o.): not able to significantly inhibit
IL-10 level in serum [3, 9]: lower level of TNFα and IL-10 with no statistical significance
TNFα level in serum [3, 9]: lower level of TNFα and IL-10 with no statistical significance
Blood urea nitrogen (BUN) level ([3]; MMF 100 mg/kg QD p.o.): remarkably inhibited

Source: patent US20250073238A1, “METHODS OF TREATING SYSTEMIC LUPUS ERYTHEMATOSUS USING BTK INHIBITORS” (BeiGene Switzerland GmbH, priority 2020, published 2025)
